The subject of one assay is MIP-2 mRNA. As to the kind of experiment: RNase protection assay, MIP-2 mRNA expression.
For assay [1], the system named is radiation (60 Gy) induced skin damage in MCa-35 mammary tumor-bearing mice. In words: Radiation induced skin damage by 5-scales Skin Scoring System. It counts as in vivo, C3H/HeN mice. The settings on record: for mice with severe skin damage (grades 4-5): 20 days after radiation. How it is done: (§1) Isotransplantable murine MCa-35 mammary tumor cells was inoculated i.m. into right hind thighs of 6-7 week-old female C3H/HeN mice (NCI, Fredrick, Md.). […] Mice were sacrificed 20 days after radiation.
(§2) Four experiment groups were used. […] Group 1 was radiation alone; mice in group 2 were given 50 mg/kg Celebrex 2 hours before radiation (2 hr pre-radiation); mice in group 3 and 4 were received the same amount of Celebrex at day 2 or day 7 post-radiation. […] All mice were sacrificed 20 day after radiation.
Radiation induce skin damage was assessed using 5-scales Skin Scoring System. 20 days after single 60 Gy radiation, mice from each treatment group were determined blindly for the degree of skin damage by three investigators. Grade 1: normal skin; grade 2: slight hair loss in irradiated area; grade 3: radish and swollen tissue; grad 4: small area erosion; grade 5: small ulceration. Grades 2-3 is referred as mild, and grades 4-5 is considered as severe skin damage.

Assay [2] has as its system MCa-35 tumor and overlaying skin. As to the kind of experiment: Histology of irradiated skin and MCa-35 tumor. Type of assay: in vivo, C3H/HeN mice.
Excerpt: as §1
Tumors and the overlaying skin tissues were removed for histology and RNA preparation. Irradiated tissues (tumor and skin) were also collected for making paraffin blocks for immunohistochemical staining. Guidelines for the humane treatment of animals were followed as approved by the University of Rochester Committee on Animal Resources.
as §2
Immunohistochemistry methods have previously been described in detail. Immediately following cryostat sectioning, tissue slices (normal muscle and tumor) were stained with CD31 antibody (PharMingen Calif.) for determination of total vasculature. The stained sections were imaged using an epi-fluorescence equipped microscope, digitized (3-CCD camera), background-corrected, and image-analyzed using Image Pro software (Media Cybernetics, Mass.) and a 450 MHz Pentium computer. Color images from individual microscope fields were automatically acquired and digitally combined to form four montages of the tumor cross-section (total area=15.5 mm2) using a motorized stage and controller. The image montages were processed to enhance the contrast between background and CD31 staining. From the enhanced images, locations of CD31-stained vessels were recorded. The quantitative vascular information was analyzed using custom Fortran programs to perform a “closest individual” analysis as previously described. Briefly, the distances from computer-superimposed sampling points to the nearest blood vessel were determined. […]

The subject of assay [3] is C-C and C-X-C chemokine receptors mRNA. In words: RNase protection assay, C-C and C-X-C chemokine receptor mRNA expression. Type of assay: in vivo, C3H/HeN mice. How it is done: as §1, §2
Total RNA was isolated from tumors and skin overlying tumors, respectively, with 9-10 mice in each treatment group by pulverizing the frozen tissue, and dissolved in TRI Reagent (Molecular Research Center, Ohio) according to the manufacturer's specifications.
Differences were considered significant for p<0.05.

A further assay has as its system Rantes mRNA. In words: RNase protection assay, Rantes mRNA expression. The settings on record: 60 Gy, 50 mg/kg Celebrex, vs 7.4±1.6 control, P<0.05, ratio to GAPDH or L32 mRNA.
For the next assay, the system named is MCP-1 mRNA. As to the kind of experiment: RNase protection assay, MCP-1 mRNA expression. Particulars: 60 Gy.

“Also recorded” adds a separate entry of the source.

As for `Cc1ccc(-c2cc(C(F)(F)F)nn2-c2ccc(S(N)(=O)=O)cc2)cc1` [Celebrex], in the assay on MIP-2 mRNA (after Celebrex treatment, 37.5% of mice with radiation alone), the “tumor skin with high MIP-2 mRNA expression” value is listed as 14.3%-28.6%. Besides, in the assay with MIP-2 mRNA (tumor tissue, 60 Gy), the “effect on tumor MIP-2 mRNA” value is given as “did not significantly alter”. In addition, the “effect on radiation induced normal skin damage” value in assay [1] (50 mg/kg daily gavage, 15 doses in three weeks, single 60 Gy) was “significantly reduced; also recorded: less radiation-induced skin damage”. Besides, the “mice with severe skin damage (grades 4-5)” value is reported as 17.6% in assay [1] (50 mg/kg gavage started 2 hr pre-radiation, 15 doses, single 60 Gy); 5.3% in assay [1] (50 mg/kg gavage started day 2 post-radiation, 15 doses, single 60 Gy); 11.1% in assay [1] (50 mg/kg gavage started day 7 post-radiation, 10 doses, single 60 Gy). The “treated mice that still developed moderate or severe skin damage after radiation” value in assay [1] (60 Gy, Celebrex-treated mice) is listed as 15-30%. The “effect on MCa-35 tumor histology (blood vessels, necrosis)” value in assay [2] (oral administration, compared with saline-treated controls) is given as “reduction of blood vessels”. In addition, the “inflammation and inflammatory cell infiltration in the dermis” value in assay [2] (pre- (2 hr) or post-radiation (day 2 or day 7) treatment, compared with saline-treated controls) was “less inflammation and cellular component infiltration in the dermis; also recorded: less infiltration of inflammatory cells”. Further, the “infiltration of inflammatory cells in tumor tissue” value in assay [2] (tumor tissue, compared with saline controls) was “not obviously altered”. For the same compound, the “CXCR4 mRNA expression” value in assay [3] (skin of Celebrex-treated mice with less radiation-induced skin damage) is on record as “significantly reduced”. In addition, the “mRNA expression of both C-C and C-X-C chemokine receptors in tumor skin” value in assay [3] (tumor skin, 60 Gy, not in tumor tissues) is “decrease mRNA expression”. Moreover, the “Rantes mRNA expression in irradiated skin tissues” value in the assay with Rantes mRNA worked out at 2.3±1.1. For the same compound, the “MCP-1 mRNA expression in irradiated skin tissues” value in the assay on MCP-1 mRNA (irradiated skin, 50 mg/kg Celebrex, vs 18.8±3.2 control, p<0.05, ratio to GAPDH or L32 mRNA) is reported as 10.2±1.1. Also, the “reduction of MCP-1 mRNA expression in tumor tissues” value in the assay with MCP-1 mRNA (tumor tissue) was “not in tumor tissues”.
